Measured values reported in patent US11691992B2 (Anacor Pharmaceuticals, Inc., priority 2017, dated 2023).
pIC50: −log10 of the molar value.

What was measured:
Type in all cases: cell-based
[1] = system: promastigote forms of L. major; experiment: Leishmania major promastigote growth inhibition assay (Alamar Blue); conditions: promastigotes, 44 hours + 4 hours Alamar Blue, read-out: IC50: I Org. promastigote Growth L. major, 2 d
Description: Example 108. Leishmania major Promastigote Growth Inhibition Assay
The promastigote assay is a microtiter plate drug sensitivity prescreen assay used to determine antileishmanial activity of candidate drugs against promastigote forms of L. major. (Shadow et al., PLOS Neglected Tropical Diseases, 2009, e311.) Alamar Blue, or resazurin, is a non-fluorescent indicator dye that is converted to bright red-fluorescent resorufin via the activity of mitochondrial reductases. As the activity of mitochondrial reductases is reduced in cells that are dead or dying, and the intensity of the fluorescence is relative to cell number, a test compound that kills or inhibits growth of a particular target cell, such as L. major, will result in a lower production of fluorescent signal. Pre-dosed microtiter drug plates for use in the promastigote drug prescreen assay were produced using sterile 384-well black optical bottom tissue culture plates (Nunc Cat #12-565-344). Candidate drugs were diluted in dimethyl sulfoxide in four 96-well plates to either 10,000 ng/ml or 1,000 ng/ml, and 4.25 μL of diluted drug was subsequently dispensed into each well of a 384-well plate. Duplicate 384 well plates were made at each test concentration (10,000 ng/mL and 1,000 ng/mL) and amphotericin B was used as a batch control. The Tecan EVO Freedom liquid handling system (Tecan US, Inc., Durham, N.C.) was used to produce all drug assay plates and conduct all pipetting operations for this assay. L. major parasites were cultured in Schneider's medium (Lonza Cat #04-351Q) supplemented with 20% heat inactivated FBS (Invitrogen Cat #16140-089). Promastigotes in early log growth phase were harvested from culture, counted, suspended at 1.32×10^5 cells/mF and 5,000 promastigotes were dispensed into each well of the 384 well plate in a volume of 38.8 μL. The 384 well plates were subsequently incubated at 28° C. for 44 hours. 8.4 μF of Alamar Blue (Promega, Cat #G8081) was added to each well, the plates were subsequently incubated at 28° C. and 5% CO2 for 4 hours and then examined for the relative fluorescence units (RFU) per well using the Tecan Genios Plus (Tecan US, Inc., Durham, N.C.) with excitation set at 560 nm and emission set at 590 nm. The relative fluorescence from each well was used to determine the percent growth inhibition of each candidate compound tested. Compounds with 50% or greater inhibition of growth were selected for further analysis to determine IC50 values.

[2] = system: TdTomato-modified T. cruzi (CL strain) in Vero cells; experiment: In vitro IC50 measurement of T. cruzi amastigote killing using TdTomato-modified T. cruzi (CL strain); conditions: Trypanosoma cruzi, 72 h, fluorescence, read-out: IC50: I Org. amastigote Growth T. cruzi CL TdTomato, 3 d
Description: Example 112. In Vitro IC50 Measurement of T. cruzi Amastigote Killing Using TdTomato-Modified T. cruzi (CL Strain)
The T. cruzi parasites used in this assay were genetically modified to express Td Tomato fluorescent protein. Vero cells (African green monkey kidney epithelial cells) were harvested from continuous cultures using trypsin and added to the inner 60 wells of 96-well Greiner Bio One plates (plate catalog #655090) at 200 ul/well of […]. Cells were allowed to adhere for 1 h before infection with T. cruzi. T. cruzi for infection were harvested from previously-infected Vero cells, washed, pelleted and resuspended at 5×10^6/mL. 50 uL of parasites were added to each well containing Vero cells. Compounds were prepared from 5 mM stock concentrations in DMSO to final concentrations in wells ranging from 5 uM to 5 nM. Wells were provided for negative controls, lacking compounds. Plates were placed into a 37° C. incubator for 20 min, then a “Day 0” reading was taken on a Synergy H4 plate reader to record initial fluorescence levels, at 544 (excitation) and 612 nm (emission). 96-well plates were placed in Tupperware containers with wet paper towels and incubated at 37° C. incubator for 72 h. After 72 h plates were reread (Day 3 reading) and data analyzed using Excel and/or Graphpad software. Day 0 fluorescence was subtracted from Day 3 to remove input parasite fluorescence. Growth curves are generated and 50% and 90% inhibitory concentrations are determined by nonlinear regression analysis.

[3] = system: luciferase-expressing L. major parasites developing intracellularly inside RAW 264.7 macrophages; experiment: Leishmania major intracellular amastigote assay in RAW 264.7 macrophages (luciferase); conditions: RAW264.7, 96 hours, read-out: IC50: I Org. intracellular amastigote Growth L. major, 4 d
Description: Example 107. Assay for Leishmania major Intracellular Amastigote Assay in RAW 264.7 Macrophages
The intracellular amastigote assay is a microtiter plate drug sensitivity assay that uses the activity of luciferase as a measure of proliferation of luciferase-expressing L. major parasites developing intracellularly inside RAW 264.7 macrophages in the presence of antileishmanial drugs or experimental compounds. (Buckner, F. S., and A. J. Wilson. Am J Prop Med Hyg, 2005, 72(5): 600-605.) As the activity of luciferase and its associated luminescence after addition of the substrate, luciferin, is relative to parasite growth, a test compound that inhibits the growth of the parasite will result in a lower luminescence. The luciferase-expressing L. major parasite used in this assay is genetically modified by adding the luciferase coding region to the pLEXSY-hyg2 vector (Jena Biosciences). The luciferase expression construct was created by digesting the luciferase coding region (1.66 kbp) of pGL3-Basic (Promega) by using two restriction enzymes, NcoI/EagI, followed by electrophoretic separation of the luciferase coding region on a 1% agarose gel. The luciferase coding region was then ligated into pLEXSY-hyg2 vector (Jena Biosciences) which had previously been digested with NcoI/NotI. The vector was linearized with SwaI and subsequently gel purified prior to transfection into L. major parasites. Transfections were carried out by electroporation at 480V, 13Ω, and 500 μF (0.4 mL of 1×10^8 parasites/mL, and 0.1 mL of 10 μg DNA). Selection for transfectants was then carried out using hygromycin B (100 μg/mL). RAW 264.7 macrophages were cultured in DMEM media (ATCC Cat #30-2002) supplemented with heat-inactivated 10% FBS (Invitrogen Cat #10438-034). To begin the assay, macrophages were harvested from culture by removing all spent media, adding in 10 mL fresh media, scraping cells, and counted using Trypan Blue. The cells were resuspended in DMEM/10% HIFBS media at 2.0×10^5 cells/mL, and then dispensed in a volume of 50 μL to yield a final concentration of 10,000 macrophages/well in 384 well tissue-culture treated sterile white plates (Nunc Cat #12-565-343) using a Tecan EVO Freedom robotics system. The plates were then incubated at 37° C. overnight in 5% CO2 atmosphere for 24 hours. After overnight incubation, the media was removed from each well using the Tecan EVO Freedom robot, and L. major promastigotes were added to each well and allowed to invade the RAW macrophages. Promastigotes were cultured in Schneider's medium (Invitrogen Cat #11720-067) supplemented with 20% heat inactivated FBS. Metacyclic stage promastigotes provide the best invasion for this assay, and cultures should be grown to increase the percentage of metacyclic promastigotes for best results. Promastigotes were harvested from culture, counted, suspended at 2×10^6 promastigotes/mL in DMEM/HIFBS media, and 100,000 promastigotes were dispensed per well in a volume of 50 μL. After overnight incubation, the media was removed from each well using the Tecan Freedom EVO robot, and each well was subsequently washed three times with 40 μF of fresh DMEM/HIFBS medium to remove all extracellular promastigotes. After the third wash, 69.2 μF of DMEM/HIFBS medium was added to each well using the Tecan EVO Freedom robot. Drug plates were prepared with the Tecan EVO Freedom using sterile 96 well plates containing twelve duplicate two-fold serial dilutions of each test compound suspended in DMSO. 7.8 μF of diluted test compound was added to the 69.2 μF of media present in each well providing a 10 fold final dilution of compound. The final concentration range tested was 0.5 to 10,000 ng/ml for all assays. The plates were next incubated at 37° C. and 5% CO2 for 96 hours. After 96 hours of incubation, 7.5 μF of a luciferin solution (Caliper Fife Science) diluted to 150 μg/mF was added to each well, and the plates were incubated for 30 minutes at 37° C., in the dark. […]

[4] = system: Trypanosoma brucei rhodesiense STIB 900 strain; experiment: Trypanosoma brucei rhodesiense STIB 900 screening assay; conditions: 72 h, read-out: Swiss TPH T b rhodesiense IC50
Description: Example 114. Trypanosoma brucei rhodesiense STIB 900 Screening Assay Procedure
The Trypanosoma brucei rhodesiense STIB 900 strain was isolated in 1982 from a human patient in Tanzania and after several mouse passages cloned and adapted to axenic culture conditions (Baltz, et al., EMBO Journal 4: 1273-1277 (1985); Thuita, et al., Acta Tropica 108: 6-10 (2008)). Minimum Essential Medium (50 μL) supplemented with 25 mM HEPES, 1 g/L additional glucose, 1% MEM non-essential amino acids (100×), 0.2 mM 2-mercaptoethanol, 1 mM Na-pyruvate and 15% heat inactivated horse serum was added to each well of a 96-well microtiter plate. Serial drug dilutions of seven 3-fold steps covering a range from 90 to 0.123 μg/mL were prepared. Then 10^4 bloodstream forms of T. b. rhodesiense STIB 900 in 50 μL was added to each well and the plate incubated at 37° C. under a 5% CO2 atmosphere for 72 h. 10 μL Alamar Blue (resazurin, 12.5 mg in 100 mL double-distilled water) was then added to each well and incubation continued for a further 2-4 h (Raz, et al., Acta Tropica 68: 139-47 (1997)). Then the plates were read with a Spectramax Gemini XS microplate fluorometer (Molecular Devices Corporation, Sunnyvale, Calif., USA) using an excitation wavelength of 536 nm and an emission wavelength of 588 nm. Data were transferred into the graphic program Softmax Pro (Molecular Devices), which calculated IC50 values.

[5] = system: L. infantum MHOM/MA(BE)/67 amastigotes in primary peritoneal mouse macrophages; experiment: Leishmania infantum intracellular amastigote assay in mouse macrophages; conditions: Macrophage, 120 h, read-out: Inhibition of Organism Growth in Leishmania infantum MHOM/MA/BE/67, 5 d [uM]
Description: Example 111. Leishmania infantum Intracellular Amastigote Assay in Mouse Macrophages
L. infantum MHOM/MA(BE)/67 amastigotes were collected from the spleen of an infected donor hamster and used to infect primary peritoneal mouse macrophages. (Kaiser, M., Maes, L., Tadoori, L. P., Spangenberg, T., Ioset, J.-R. J. Biomol. Screen. 2015 20(5), 634-35.) To determine in vitro antileishmanial activity, 3×10^4 macrophages were seeded in each well of a 96-well plate. Culture medium was RPMI-1640 supplemented with L-glutamine (20 mM), 16.5 mM sodium hydrogen carbonate, and 10% fetal calf serum (FCS). After 2 d of outgrowth, 5×10^5 amastigotes/well were added and incubated for 2 h at 37° C. Prediluted samples to be tested were subsequently added, and the plates were further incubated for 5 d at 37° C. and 5% CO2. Total parasite burdens in the well were microscopically assessed after Giemsa staining and expressed as a percentage of the total burden in the blank controls without compound. In treated wells with high amastigote burdens, an overall estimate of the total burden per well was made without discrimination between the number of infected macrophages and the number of amastigotes per infected cell. In treated wells with low burdens, exact counting was performed. The 50% inhibitory concentrations (IC50s) were then generated for each dose response test using GraphPad Prism (GraphPad Software Inc., San Diego, Calif.) using the nonlinear regression (sigmoidal dose-response/variable slope) equation.

[6] = system: bloodstream forms of T. b. rhodesiense STIB 900; experiment: T. brucei rhodesiense STIB 900 growth inhibition assay; conditions: Trypanosoma brucei, 72 h, read-out: IC50: I Org. Growth T. brucei rhodesiense STIB 900, 3 d [uM]
Description: Example 110. T. brucei rhodesiense STIB 900 Growth Inhibition Assay
The parasite strain used in this assay was isolated in 1982 from a human patient in Tanzania and after several mouse passages cloned and adapted to axenic culture conditions, ((a) Baltz, T., D. Baltz, C. Giroud, and J. Crockett. EMBO Journal, 1985, 4:1273-1277. (b) Thuita, J. K., S. M. Karanja, T. Wenzler, R. E. Mdachi, J. M. Ngotho, J. M. Kagira, R. Tidwell, and R. Brun. Acta Tropica 2008, 108:6-10.) Minimum Essential Medium (50 μl) supplemented with 25 mM HEPES, 1 g/l additional glucose, 1% MEM non-essential amino acids (100×), 0.2 mM 2-mercaptoethanol, 1 mM Na-pyruvate and 15% heat inactivated horse serum was added to each well of a 96-well microtiter plate. Serial drug dilutions of seven 3-fold dilution steps covering a range from 90 to 0.123 μg/ml were prepared. Then 10^4 bloodstream forms of T. b. rhodesiense STIB 900 in 50 μl was added to each well and the plate incubated at 37° C. under a 5% CO2 atmosphere for 72 h. 10 μl Alamar Blue (resazurin, 12.5 mg in 100 ml double-distilled water) was then added to each well and incubation continued for a further 2-4 h, (Raz, B., M. Iten, Y. Grether-Buhler, R. Kaminsky, and R. Brun. Acta Trap 1997, 68:139-47.) Then the plates were read with a Spectramax Gemini XS microplate fluorometer (Molecular Devices Cooperation, Sunnyvale, Calif., USA) using an excitation wave length of 536 nm and an emission wave length of 588 nm. Data were analyzed using the microplate reader software Softmax Pro (Molecular Devices Cooperation, Sunnyvale, Calif., USA).

Compound: Cc1c(C(=O)Nc2ccc3c(c2)B(O)OC32CCC2)nnn1-c1ccccn1 [Example 27, N-(1-hydroxy-1H-spiro[benzo[c][1,2]oxaborole-3,1′-cyclobutan]-6-yl)-5-methyl-1-(pyridin-2-yl)-1H-1,2,3-triazole-4-carboxamide]
- pIC50 [1]: 5.60 to 6.22
- pIC50 [2]: > 6.22
- pIC50 [3]: 5.00 to 5.96

Compound: COc1cccc(-n2cc(C(=O)Nc3ccc4c(c3)B(O)OC4)nn2)n1 [Example 64, N-(1-hydroxy-1,3-dihydrobenzo[c][12]oxaborol-6-yl)-1-(6-methoxypyridine-2-yl)-1H-1,2,3-triazole-4-carboxamide]
- pIC50 [4]: > 7.00
- IC50 [5]: < 3 µM
- IC50 [6]: 0.1 to 0.3 µM
